Assay results reported in US9399646B2 (Genentech, Inc., priority 2010, dated 2016).

How the values were obtained:
MCF-7 cells = experiment: Breast cancer cell viability assay (CellTiter-Glo, 5 days); format: cell-based; details: 5 days' compound exposure; for IC50: Homo sapiens, MCF7, 120 h
Method in brief: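 Eleven-point semilog compound series, final 0.3-0.000003 μM, added to overnight-adhered MCF-7 cells (320/well; RPMI, 10% FBS, 20 mM HEPES) for 5 days. Viability read by CellTiter-Glo luminescence, background from medium without cells subtracted, expressed relative to untreated cells.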

ER-α in MCF-7 cells = target: T1, ER-α in MCF-7 cells (Homo sapiens, UniProt P03372); experiment: Breast cancer cell ER-α in cell western assay (SP1); format: cell-based; design: endogenous in cells; host or cells: MCF-7; details: 4 or 24 hr post compound addition; for Emax: MCF7, SP1 antibody, read-out: ER-α In Cell Western Assay (SP1) Max Response; for DC50: SP1 antibody, read-out: ER-α In Cell Western Assay (SP1) IC50
T1 sequence (P03372 1-595): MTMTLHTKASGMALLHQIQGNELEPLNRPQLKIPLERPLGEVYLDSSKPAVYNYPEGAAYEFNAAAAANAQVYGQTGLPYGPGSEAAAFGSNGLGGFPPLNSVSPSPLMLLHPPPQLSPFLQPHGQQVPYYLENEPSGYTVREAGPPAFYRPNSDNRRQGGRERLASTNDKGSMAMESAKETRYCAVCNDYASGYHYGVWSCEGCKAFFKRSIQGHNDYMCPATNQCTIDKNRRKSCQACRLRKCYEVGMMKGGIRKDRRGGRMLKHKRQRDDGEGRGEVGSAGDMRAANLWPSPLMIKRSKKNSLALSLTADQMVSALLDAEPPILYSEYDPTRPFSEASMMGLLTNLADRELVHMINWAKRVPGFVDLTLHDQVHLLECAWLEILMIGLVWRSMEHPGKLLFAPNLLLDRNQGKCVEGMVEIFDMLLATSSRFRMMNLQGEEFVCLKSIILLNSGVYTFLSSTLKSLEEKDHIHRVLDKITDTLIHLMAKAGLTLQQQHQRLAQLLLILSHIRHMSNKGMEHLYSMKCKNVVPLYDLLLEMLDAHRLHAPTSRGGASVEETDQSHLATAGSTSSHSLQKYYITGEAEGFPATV
Method in brief: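 ER-α protein levels were measured in MCF-7 cells after 4 or 24 hr compound exposure (final 0.3–0.000003 μM) in RPMI containing 10% charcoal-stripped FBS.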

Compound	MCF7 Viability Assay Max Response (MCF-7 cells)	IC50 (MCF-7 cells) [nM]	Emax (ER-α in MCF-7 cells) [%]	DC50 (ER-α in MCF-7 cells) [nM]
CC/C(=C(/c1ccc(/C=C/C(=O)O)cc1)c1ccc2[nH]ncc2c1)c1cnnn1C [Compound 221, (E)-3-(4-((E)-1-(1H-Indazol-5-yl)-2-(1-methyl-1H-1,2,3-triazol-5-yl)but-1-en-1-yl)phenyl)acrylic acid]	+ (+ = a single % value < 40%)	> 100	< 40	> 100
CC/C(=C(/c1ccc(/C=C/C(=O)O)cc1)c1ccc2[nH]ncc2c1)c1cccc(OCc2ccccc2)c1 [Compound 358, (E)-3-(4-((E)-2-(3-(Benzyloxy)phenyl)-1-(1H-indazol-5-yl)but-1-en-1-yl)phenyl)acrylic acid]	++ (++ = a single % value ≧ 40%)	≤ 100	≥ 40	≤ 100
CC/C(=C(/c1csc(/C=C/C(=O)O)c1)c1ccc2[nH]ncc2c1)c1ccccc1 [Compound 186, (E)-3-(4-((Z)-1-(1H-Indazol-5-yl)-2-phenylbut-1-en-1-yl)thiophen-2-yl)acrylic acid]	+ (+ = a single % value < 40%)	> 100	≥ 40	–
CC/C(=C(/c1ccc(/C=C/c2noc(=O)[nH]2)cc1)c1ccc2[nH]ncc2c1)c1ccc(F)cc1Cl [Compound 437, 3-((E)-4-((E)-2-(2-Chloro-4-fluorophenyl)-1-(1H-indazol-5-yl)but-1-en-1-yl)styryl)-1,2,4-oxadiazol-5(4H)-one]	++ (++ = a single % value ≧ 40%)	≤ 100	≥ 40	≤ 100
CC/C(=C(/c1ccc(/C=C/C(=O)O)cc1)c1ccc2c(cnn2C(C)=O)c1)c1ccc(F)cc1Cl [Compound 403, (E)-3-(4-((E)-1-(1-Acetyl-1H-indazol-5-yl)-2-(2-chloro-4-fluorophenyl)but-1-en-1-yl)phenyl)acrylic acid]	++ (++ = a single % value ≧ 40%)	≤ 100	≥ 40	≤ 100
CC/C(=C(/c1ccc(/C=C/C(=O)O)cc1)c1cnc2[nH]ncc2c1)c1ccccc1 [Compound 67, (E)-3-(4-((E)-2-Phenyl-1-(1H-pyrazolo[3,4-b]pyridin-5-yl)but-1-en-1-yl)phenyl)acrylic acid]	++ (++ = a single % value ≧ 40%)	> 100	≥ 40	> 100
CC/C(=C(/c1ccc(/C=C/C(=O)O)cc1)c1ccc2[nH]ncc2c1)c1cccnc1C(F)(F)F [Compound 222, (E)-3-(4-((E)-1-(1H-Indazol-5-yl)-2-(2-(trifluoromethyl)pyridin-3-yl)but-1-en-1-yl)phenyl)acrylic acid]	++ (++ = a single % value ≧ 40%)	≤ 100	≥ 40	≤ 100
CC/C(=C(/c1ccc(/C=C/C(=O)O)cc1)c1ccc2[nH]ncc2c1)c1cccc(OCCCCC(=O)O)c1 [Compound 352, 5-(3-((E)-1-(4-((E)-2-Carboxyvinyl)phenyl)-1-(1H-indazol-5-yl)but-1-en-2-yl)phenoxy)pentanoic acid]	+ (+ = a single % value < 40%)	> 100	≥ 40	> 100
CC/C(=C(/c1ccc(/C=C/C(=O)O)cc1)c1ccc2c(c1)COC(=O)N2)c1ccccc1 [Compound 101, (E)-3-(4-((E)-1-(2-Oxo-2,4-dihydro-1H-benzo[d][1,3]oxazin-6-yl)-2-phenylbut-1-en-1-yl)phenyl)acrylic acid]	++ (++ = a single % value ≧ 40%)	> 100	≥ 40	> 100
O=C(O)/C=C/c1ccc(/C(=C(\c2ccc(F)cc2Cl)C2CCC2)c2ccc3scnc3c2)cc1 [Compound 278, (E)-3-(4-((E)-1-(Benzo[d]thiazol-5-yl)-2-(2-chloro-4-fluorophenyl)-2-cyclobutylvinyl)phenyl)acrylic acid]	++ (++ = a single % value ≧ 40%)	≤ 100	≥ 40	≤ 100
CC/C(=C(/c1ccc(/C=C/C(=O)O)cc1)c1ccc2nccn2c1)c1ccc(F)cc1C(F)(F)F [Compound 233, (E)-3-(4-((E)-2-(4-Fluoro-2-(trifluoromethyl)phenyl)-1-(imidazo[1,2-a]pyridin-6-yl)but-1-en-1-yl)phenyl)acrylic acid]	++ (++ = a single % value ≧ 40%)	≤ 100	≥ 40	≤ 100
O=C(/C=C/c1ccc(/C(=C(\c2ccccc2)C2CCC2)c2ccc3[nH]nc(F)c3c2)cc1)NCCO [Compound 414, (E)-3-(4-((E)-2-Cyclobutyl-1-(3-fluoro-1H-indazol-5-yl)-2-phenylvinyl)phenyl)-N-(2-hydroxyethyl)acrylamide]	++ (++ = a single % value ≧ 40%)	≤ 100	≥ 40	≤ 100
CC/C(=C(/c1ccc(/C=C/C(=O)O)cc1)c1ccc2[nH]ncc2c1)c1cccc(-c2ccncc2)c1 [Compound 394, (E)-3-(4-((E)-1-(1H-Indazol-5-yl)-2-(3-(pyridin-4-yl)phenyl)but-1-en-1-yl)phenyl)acrylic acid]	++ (++ = a single % value ≧ 40%)	> 100	≥ 40	≤ 100
CC/C(=C(/c1ccc(/C=C/C(=O)O)cc1)c1cccc2[nH]ncc12)c1ccccc1C [Compound 21, (E)-3-(4-((E)-1-(1H-Indazol-4-yl)-2-(o-tolyl)but-1-en-1-yl)phenyl)acrylic acid]	++ (++ = a single % value ≧ 40%)	≤ 100	≥ 40	≤ 100
CC/C(=C(/c1ccc(/C=C/C(=O)O)cc1)c1ccc2[nH]ncc2c1)c1ccsc1Cl [Compound 267, (E)-3-(4-((E)-2-(2-Chlorothiophen-3-yl)-1-(1H-indazol-5-yl)but-1-en-1-yl)phenyl)acrylic acid]	++ (++ = a single % value ≧ 40%)	≤ 100	≥ 40	≤ 100
CC/C(=C(/c1ccc(/C=C/C(=O)O)cc1)c1ccn2ncnc2c1)c1ccccc1 [Compound 136, (E)-3-(4-((E)-1-([1,2,4]Triazolo[1,5-a]pyridin-7-yl)-2-phenylbut-1-en-1-yl)phenyl)acrylic acid]	+ (+ = a single % value < 40%)	> 100	≥ 40	> 100
CC/C(=C(/c1ccc(/C=C/C(=O)O)cc1)c1ccc2[nH]ncc2c1)c1cccc(Oc2ccncc2)c1 [Compound 366, (E)-3-(4-((E)-1-(1H-Indazol-5-yl)-2-(3-(pyridin-4-yloxy)phenyl)but-1-en-1-yl)phenyl)acrylic acid]	++ (++ = a single % value ≧ 40%)	≤ 100	≥ 40	≤ 100
CC/C(=C(/c1ccc(/C=C/C(=O)O)cc1)c1ccc2[nH]ncc2c1F)c1cccc(Oc2ccccn2)c1 [Compound 375, (E)-3-(4-((E)-1-(4-Fluoro-1H-indazol-5-yl)-2-(3-(pyridin-2-yloxy)phenyl)but-1-en-1-yl)phenyl)acrylic acid]	++ (++ = a single % value ≧ 40%)	≤ 100	≥ 40	≤ 100
CC/C(=C(/c1ccc(/C=C/C(=O)O)cc1)c1ccc2[nH]ncc2c1)c1cccnc1C [Compound 217, (E)-3-(4-((E)-1-(1H-Indazol-5-yl)-2-(2-methylpyridin-3-yl)but-1-en-1-yl)phenyl)acrylic acid]	++ (++ = a single % value ≧ 40%)	> 100	≥ 40	–
CC/C(=C(/c1ccc(/C=C/C(=O)O)cc1)c1ccc2[nH]ncc2c1)c1ccc(OCCCCC(=O)O)cc1 [Compound 354, 5-(4-((E)-1-(4-((E)-2-Carboxyvinyl)phenyl)-1-(1H-indazol-5-yl)but-1-en-2-yl)phenoxy)pentanoic acid]	+ (+ = a single % value < 40%)	> 100	≥ 40	> 100
CCCCCS(=O)(=O)NC(=O)/C=C/c1ccc(/C(=C(/CC)c2ccc(F)cc2Cl)c2ccc3[nH]ncc3c2)cc1 [Compound 410, (E)-3-(4-((E)-2-(2-Chloro-4-fluorophenyl)-1-(1H-indazol-5-yl)but-1-en-1-yl)phenyl)-N-(pentylsulfonyl)acrylamide]	++ (++ = a single % value ≧ 40%)	≤ 100	≥ 40	≤ 100
